According to patent US7138361B2, “Herbicidal heterocycles” (E. I. du Pont de Nemours and Company, priority 2000, dated 2006):

Tests used:
Assay type in all cases: in vivo
rice (Oryza saliva) = assay: Test C flooded paddy test; conditions: for Rice plant response rating: Flooded Paddy, scale 0 to 100, 0 no effect, 100 complete control; for Plant response rating, Rice: scale 0 to 100 (0 no effect, 100 complete control)
Procedure, shortened: (§1)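 Visual injury score, 0 (no effect) to 100 (complete control), relative to controls. Paddy plants treated at 2-leaf stage; greenhouse hold 12–14 d before rating.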

[1] = test system: barnyardgrass (Echinochloa crus-galli); assay: Test C flooded paddy test; conditions: for Barnyardgrass plant response rating: Flooded Paddy, scale 0 to 100, 0 no effect, 100 complete control; for Plant response rating, Barnyardgrass: scale 0 to 100 (0 no effect, 100 complete control)
Procedure, shortened: as §1

[2] = test system: duck salad (Heteranthera limosa); assay: Test C flooded paddy test; conditions: for Ducksalad plant response rating: Flooded Paddy, scale 0 to 100, 0 no effect, 100 complete control; for Plant response rating, Ducksalad: scale 0 to 100 (0 no effect, 100 complete control)
Procedure, shortened: as §1

Sunflower = assay: Test C preemergence; conditions: scale 0 to 100
[3] = flooded paddy test, Rate 62 g/ha
[4] = flooded paddy test, Rate 125 g/ha
[5] = flooded paddy test, Rate 62 g/ha, visually evaluated after 12 to 14 days, 0 = no effect, 100 = complete control

| Compound | Rice plant response rating (rice (Oryza saliva); Rate 250 g/ha) | Rice plant response rating (rice (Oryza saliva); Rate 500 g/ha) | Plant response rating, Rice (rice (Oryza saliva); [3]) | Plant response rating, Rice (rice (Oryza saliva); [4]) | Barnyardgrass plant response rating ([1]; Rate 250 g/ha) | Barnyardgrass plant response rating ([1]; Rate 500 g/ha) | Plant response rating, Barnyardgrass [1, 3] | Plant response rating, Barnyardgrass [1, 4] | Ducksalad plant response rating ([2]; Rate 250 g/ha) | Ducksalad plant response rating ([2]; Rate 500 g/ha) | Plant response rating, Ducksalad [2, 3] | Plant response rating, Ducksalad [2, 4] | Plant response rating, Sunflower (Sunflower; Rate 62 g/ha) | Plant response rating, Sunflower (Sunflower; Rate 31 g/ha) | Plant response rating (scale 0 to 100), Rice (rice (Oryza saliva); [5]) | Plant response rating (scale 0 to 100), Barnyardgrass [1, 5] | Plant response rating (scale 0 to 100), Ducksalad [2, 5] |
| --- | --- | --- | --- | --- | --- | --- | --- | --- | --- | --- | --- | --- | --- | --- | --- | --- | --- |
| CCCC(C)c1ccn(C2OCN(c3cccc(C(F)(F)F)c3)C2=O)n1 (stereo not drawn) [Compound 89] | 20 | 40 | 0 | 0 | 100 | 100 | 20 | 70 | 40 | 90 | 0 | 0 | 0 |  |  |  |  |
| CCCC(C)c1ccn(C2SCN(c3cccc(OC(F)(F)F)c3)C2=O)n1 (stereo not drawn) [Compound 90] | 0 | 20 | 0 | 0 | 90 | 100 | 30 | 60 | 90 | 90 | 80 |  | 0 | 0 |  |  |  |
| CCCC(C)c1ccn(C2SCN(c3cccc(C(F)(F)F)c3)C2=O)n1 (stereo not drawn) [Compound 92] | 30 | 30 | 0 | 0 | 100 | 100 | 50 | 100 | 100 | 100 | 80 | 100 | 0 |  |  |  |  |
| CCC(C)c1ccn(C2CCN(c3cccc(OC)c3)C2=O)n1 (stereo not drawn) [Compound 95] | 70 | 90 | 0 | 20 | 100 | 100 | 70 | 70 | 100 | 100 | 70 | 90 | 0 |  |  |  |  |
| CCC(CC)c1ccn(C2CCN(c3cccc(OC)c3)C2=O)n1 (stereo not drawn) [Compound 96] | 50 | 60 | 0 | 0 | 100 | 100 | 80 | 80 | 100 | 100 | 80 | 90 | 0 |  |  |  |  |
| CCCC(C)c1ccn(C2CCN(c3cccc(OC)c3)C2=O)n1 (stereo not drawn) [Compound 99] | 50 | 80 | 0 | 50 | 20 | 60 | 0 | 0 | 0 | 0 | 0 | 0 | 0 |  |  |  |  |
| CCCC(C)c1ccn(C2CCN(c3cccc(C(F)(F)F)c3)C2=O)n1 (stereo not drawn) [Compound 100] | 50 | 80 | 0 | 50 | 0 | 60 | 0 | 0 | 0 | 40 | 0 | 0 | 0 |  |  |  |  |
| CC(C)(C)c1ccn(C2CCN(c3cccc([S+]([O-])C(F)(F)F)c3)C2=O)n1 (stereo not drawn) [Compound 101] | 80 | 90 | 0 | 80 | 50 | 90 | 0 | 40 | 100 | 100 | 0 | 90 | 0 | 0 |  |  |  |
| CC(C)c1cccc(N2CCC(n3ccc(C(C)(C)C)n3)C2=O)c1 (stereo not drawn) [Compound 111] | 0 | 0 | 0 | 0 | 20 | 30 | 0 | 0 | 0 | 0 | 0 | 0 | 0 |  |  |  |  |
| CC(C)OC(=O)c1cccc(N2CCC(n3ccc(C(C)(C)C)n3)C2=O)c1 (stereo not drawn) [Compound 124] | 0 | 0 | 0 | 0 | 0 | 0 | 0 | 0 | 40 | 80 | 0 | 20 | 0 | 0 |  |  |  |
| CCC(C)Oc1cccc(N2CCC(n3ccc(C(C)(C)C)n3)C2=O)c1 (stereo not drawn) [Compound 127] | 0 | 0 | 0 | 0 | 20 | 50 | 0 | 0 | 50 | 80 | 0 | 0 | 0 |  |  |  |  |
| CCOc1cccc(N2CCC(n3ccc(C(C)C)n3)C2=O)c1 (stereo not drawn) [Compound 128] | 30 | 70 | 0 | 30 | 100 | 100 | 40 | 100 | 100 | 100 | 60 | 70 | 20 |  |  |  |  |
| CCCC(C)c1ccn(C2CCN(c3cccc(OCC)c3)C2=O)n1 (stereo not drawn) [Compound 129] | 0 | 35 |  | 0 | 80 | 100 |  | 50 | 90 | 90 |  | 30 | 0 |  | 0 | 30 | 20 |
